Converted amounts (≈) assume the structure as drawn. “And” between values parts separate entries of the source, which are not always exact repeats. Equal entries are not always repeated.
What was measured:
[1] = tested on: Tagia sp.
[2] = tested on: Canidae; conditions: chronic; duration: 1 years; Dog Other; clinical chemistry
[3] = tested on: Colinus virginianus; conditions: for NOEC / NOEL: reproduction developmental
[4] = tested on: Rattus norvegicus; conditions: for LD50: acute, oral, mortality
[5] = tested on: Anas platyrhynchos; conditions: for NOEC / NOEL: reproductive
[6] = tested on: Daphnia magna; conditions: chronic/long-term
[7] = tested on: Apis mellifera; conditions: acute, mortality
[8] = tested on: Bibionidae; conditions: chronic/long-term
[9] = tested on: Mus musculus; conditions: acute, oral, mortality
[10] = tested on: Folsomia candida; conditions: chronic/long-term
[11] = tested on: Oncorhynchus mykiss
[12] = tested on: Typhlodromus pyri; test: LR50; higher = less toxic; conditions: not reported; mortality
[13] = tested on: Aphidius rhopalosiphi; test: LR50; higher = less toxic; conditions: chronic/long-term; mortality
[14] = acute, duration: 5 days, oral, diet, mortality

## OC(Cc1ccccc1Cl)(Cn1[nH]cnc1=S)C1(Cl)CC1 (stereo not drawn) [Prothioconazole]
[1]; acute, mortality
  LC50: > 1000 mg/kg
[1]; chronic/long-term
  NOEC: 1.33 mg/kg
[2]
  NOAEL: 5 mg/kg-day
[3]; [14]
  LC50: > 5000 mg/kg and 4090 mg/kg
  LD50: > 1410 mg/kg-day
[3]; acute, oral, mortality
  LD50: > 2000 mg/kg
[3]; duration: 20 weeks
  NOEC: 173 mg/kg-day
  NOEL: 14.8 mg/kg-day
[3]; duration: 22 weeks
  NOEC: ≥ 1000 mg/kg-day
  NOEL: ≥ 86 mg/kg-day
[4]; F
  LD50: 2510 mg/kg-day
[4]; M/F
  LD50: > 6200 mg/kg-day
[4]; M
  LD50: 2810 mg/kg-day
[4]; chronic, duration: 2 years, organ weight
  NOAEL: 5 mg/kg-day
[4]; developmental, development
  NOAEL: 20 mg/kg-day
[5]; duration: 20 weeks
  NOEC: ≥ 500 mg/kg
  NOEL: 63 mg/kg-day
[5]; duration: 21 weeks
  NOEC: 700 mg/kg
  NOEL: 78 mg/kg-day
[5]; short-term, duration: 5 days, oral, feed, mortality
  LD50: > 2460 mg/kg-day
[5]; short-term, duration: 5 days, oral, feed, reproduction
  LC50: > 5000 mg/kg
[6]
  NOEC: 0.56 mg/L
[7]; dermal
  LD50: > 200 µg/piece
[7]; oral, unspecified
  LD50: > 71 µg/piece
[8]
  NOEC: 9.14 mg/L
[9]; F
  LD50: 3460 mg/kg
[9]; M
  LD50: 2240 mg/kg-day
[10]
  NOEC: 64 mg/kg
[11]; acute, mortality
  LC50: 1.83 µg/mL (≈ 5.32 µM)
[11]; chronic/long-term, other
  NOEC: 0.308 mg/L
[12]
  LR50: 18.7 g/ha
[13]
  LR50: 140 g/ha

## OC(Cc1ccccc1Cl)(Cn1cncn1)C1(Cl)CC1 (stereo not drawn)
[3]; acute, oral, diet, mortality
  LD50: > 297 mg/kg-day
[3]; acute, oral, mortality
  LD50: > 2000 mg/kg
[3]; duration: 20 weeks, oral, diet
  NOEL: 14.8 mg/kg-day
[4]; chronic, organ weight
  NOAEL: 1.1 mg/kg-day
[4]; developmental, development
  NOAEL: 1 mg/kg-day
[5]; duration: 20 weeks, oral, feed
  NOEL: 63 mg/kg-day

Reference: EPA's ToxValDB 9.5 (doi:10.2903/j.efsa.2007.106r)
